Measured values published in the NIST ThermoML archive (doi:10.1016/j.fluid.2012.01.029).
± gives the expanded uncertainty stated by the source.

Details: 293.15 K; 101.33 kPa; Liquid; Vibrating tube method

SMILES | mass density
NCCO [2-aminoethan-1-ol] | 1017.9 ± 0.3 kg/m3
CN(CCO)CCO [N-methyldiethanolamine] | 1037.7 ± 0.3 kg/m3
